Consider one molecule from US12686846B2, “Plant sweet and yeast MSF transporter capable of transporting different sugars simultaneously” (THE BOARD OF TRUSTEES OF THE UNIVERSITY OF ILLINOIS, priority 2020, dated 2026).

The target of test [1] is T1, Saccharomyces cerevisiae ScGal2 (Gal2) transporter, SEQ ID NO:32 (Saccharomyces cerevisiae, UniProt P13181).
T1 construct: expressed in transfected cells; host or cells: S. cerevisiae SR8D8 (SR8 with HXT1-7 and GAL2 deleted), plasmid p42K-GPD1p-CYC1t
T1 sequence (P13181 1-574): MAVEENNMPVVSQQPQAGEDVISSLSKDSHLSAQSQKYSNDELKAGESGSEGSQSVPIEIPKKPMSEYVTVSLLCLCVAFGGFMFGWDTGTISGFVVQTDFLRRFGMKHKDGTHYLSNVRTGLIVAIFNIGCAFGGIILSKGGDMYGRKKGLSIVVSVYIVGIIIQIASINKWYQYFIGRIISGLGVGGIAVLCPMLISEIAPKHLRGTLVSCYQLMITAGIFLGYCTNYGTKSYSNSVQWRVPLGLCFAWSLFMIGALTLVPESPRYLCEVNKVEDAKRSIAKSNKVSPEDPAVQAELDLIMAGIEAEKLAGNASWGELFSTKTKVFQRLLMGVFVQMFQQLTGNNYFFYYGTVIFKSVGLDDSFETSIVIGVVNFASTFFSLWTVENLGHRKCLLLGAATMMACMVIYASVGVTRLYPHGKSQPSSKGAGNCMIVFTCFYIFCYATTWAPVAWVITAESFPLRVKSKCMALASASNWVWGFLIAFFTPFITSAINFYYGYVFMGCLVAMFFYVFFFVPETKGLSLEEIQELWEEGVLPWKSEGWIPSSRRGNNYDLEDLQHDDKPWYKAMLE
As to the kind of experiment: Inhibition of xylose uptake by glucose, SR8D8 expressing ScGal2. It counts as cell-based. The note with it: in words. As to the method: Symbols: glucose (square), xylose (triangle up), DCW (circle), ethanol (triangle down), glycerol (diamond). […] Global curve fitting for Michaelis-Menten kinetics with competitive inhibition was applied to data of three independent measurements at each concentration.
SR8D8 containing the respective plasmid was grown on selective YPE medium to an OD600 of 1-1.5, harvested by centrifugation, and washed twice in ice-cold uptake buffer (100 mM potassium phosphate, pH 6.5). C14 labeled sugar uptake assay was done according to Boles and Oreb. Radioactivity was analyzed in a Beckman-Coulter LS6500 multi-purpose liquid scintillation counter (Beckman-Coulter, CA, USA).
Sugar solutions contained 0.135-0.608 μCi of D-[U-^14C]-glucose (290-300 mCi/mmol) or D-[1-^14C]-xylose (55 mCi/mmol) (PerkinElmer, MA, USA). Calculation of Km (Michaelis constant), Vmax (maximal initial uptake velocity), and K (inhibitor constant for competitive inhibition) was done by nonlinear regression analysis and global curve fitting in Prism 7 (GraphPad Software) with values of three independent measurements.

For test [2], the target named is T2, Lipomyces starkeyi LST1_205437 transporter, wild type, SEQ ID NO: 4 (Lipomyces starkeyi, UniProt A0A1E3QE37).
T2 construct: whole-cell 14C sugar uptake
T2 sequence (A0A1E3QE37 1-603): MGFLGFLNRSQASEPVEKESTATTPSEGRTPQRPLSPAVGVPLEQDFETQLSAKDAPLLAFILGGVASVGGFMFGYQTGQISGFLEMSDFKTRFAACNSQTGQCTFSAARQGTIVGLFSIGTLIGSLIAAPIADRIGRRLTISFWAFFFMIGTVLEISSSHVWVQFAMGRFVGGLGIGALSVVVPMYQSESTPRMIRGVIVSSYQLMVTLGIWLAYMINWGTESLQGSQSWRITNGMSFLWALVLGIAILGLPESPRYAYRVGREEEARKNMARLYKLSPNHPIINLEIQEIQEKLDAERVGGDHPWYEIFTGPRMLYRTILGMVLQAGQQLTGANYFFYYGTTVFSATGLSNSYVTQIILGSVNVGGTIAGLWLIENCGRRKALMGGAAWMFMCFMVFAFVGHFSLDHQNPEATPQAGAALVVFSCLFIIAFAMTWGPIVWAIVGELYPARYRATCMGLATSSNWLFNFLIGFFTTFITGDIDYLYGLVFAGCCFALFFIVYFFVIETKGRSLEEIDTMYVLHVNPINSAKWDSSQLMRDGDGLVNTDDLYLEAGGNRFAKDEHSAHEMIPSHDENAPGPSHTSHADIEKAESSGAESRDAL
As to the kind of experiment: C14 labeled sugar uptake assay (zero-trans influx), SR8D8 expressing LST1_205437. It counts as cell-based. The conditions noted are these: initial glucose uptake (5 s), 30° C., pH 6.5; cell wet weight; ± SEM. On the procedure: FIG. 7A illustrates sugar uptake kinetics by SR8D8. FIG. 7B illustrates sugar uptake kinetics by SR8D8 expressing AtSWEET1. FIG. 7C illustrates sugar uptake kinetics by SR8D8 expressing ScGal2. FIG. 7D illustrates sugar uptake kinetics by SR8D8 expressing AtSWEET7. FIG. 7E illustrates sugar uptake kinetics by SR8D8 expressing LST1_205437. Initial xylose uptake (20 s) was measured at 30° C. over a concentration range of 1 to 500 mM xylose. FIG. 7F illustrates sugar uptake kinetics by SR8D8. FIG. 7G illustrates sugar uptake kinetics by SR8D8 expressing AtSWEET1. FIG. 7H illustrates sugar uptake kinetics by SR8D8 expressing ScGal2. FIG. 7I illustrates sugar uptake kinetics by SR8D8 expressing AtSWEET7. FIG. 7J illustrates sugar uptake kinetics by SR8D8 expressing LST1_205437. Initial glucose uptake (5 s) was measured at 30° C. over a concentration range of 0.2 to 100 mM glucose. Curve fitting for Michaelis-Menten kinetics was applied to data of three independent measurements at each concentration.
A xylose fermenting S. cerevisiae yeast (SR8) with HXT1-7Δ, GAL2Δ deletions was used for transporter screening and characterization (SR8D8). SR8D8 was grown in YPE medium/plate (10 g/L yeast extract, 20 g/L peptone, and 5 g/L ethanol). […] Biomass was calculated from the OD600 measured using a Biomate 5 UV-visible spectrophotometer (Fisher, NY, USA). All growth rates were measured using a Bioscreen C plate reader system (Growth Curves USA, Piscataway, NJ, USA). […]
SR8D8 containing the respective plasmid was grown on selective YPE medium to an OD600 of 1-1.5, harvested by centrifugation, and washed twice in ice-cold uptake buffer (100 mM potassium phosphate, pH 6.5). […] Radioactivity was analyzed in a Beckman-Coulter LS6500 multi-purpose liquid scintillation counter (Beckman-Coulter, CA, USA).
Uptake was measured at sugar concentrations 0.2, 1, 5, 25, and 100 mM for glucose and 1, 5, 25, 66, 100, 200, and 500 mM for xylose. Inhibition of xylose uptake by glucose was measured at 25, 66, and 100 mM xylose with additional 25 and 100 mM unlabeled glucose.

For the molecule `OC[C@H]1OC(O)[C@H](O)[C@@H](O)[C@@H]1O` (stereo partly drawn) [Glucose], the figures for the “inhibition of xylose transport by glucose” value in test [1] (25 mM glucose) and in test [1] (25 mM or 100 mM glucose) were “complete xylose inhibition” and “completely inhibited”, respectively. For the same molecule, the “Vmax (glucose)” value in test [2] turned out to be 47.0 ± 2.6 nmol/min/mg.
